Test results from article PMC11184554, “Nature-Inspired Gallinamides Are Potent Antischistosomal Agents: Inhibition of the Cathepsin B1 Protease Target and Binding Mode Analysis” (ACS Infectious Diseases, 2024).

Assays:
[1] = tested on: recombinant SmCB1; test: Kinetic inhibition assay with recombinant SmCB1 (k2nd); assay type: biochemical, S. mansoni
Description: Gallinamide A and a series of its 18 derivatives were evaluated in vitro as inhibitors of SmCB1 to explore the binding specificities of the subsites in the enzyme’s active site. The gallinamide A inhibitor scaffold can be defined by positions P4 through P1′ (Schechter and Berger nomenclature[37]), which were assigned according to the binding mode analysis (see the crystallographic section below). The substituents R4, R1, and R1′ introduced on the scaffold (Table 2) are numbered according to the respective positions P4, P1, and P1′. The compounds’ second-order rate constants (k2nd) were determined using a kinetic inhibition assay with recombinant SmCB1 and the substrate, Cbz–Phe–Arg–AMC.
Inhibition measurements were performed in duplicate in 96-well microplates (100 μL assay volume) at 37 °C. SmCB1 (40 pM) was added to a mixture of the fluorogenic substrate Cbz–Phe–Arg–AMC (25 μM) and an inhibitor (0–100 μM) in 0.1 M sodium acetate, pH 5.5, containing 2.5 mM dithiothreitol and 0.01% (w/v) BRIJ 35. Substrate hydrolysis was monitored in an Infinite M1000 microplate reader (Tecan) at excitation and emission wavelengths of 360 and 465 nm, respectively, for up to 150 min. An observed first-order rate constant, kobs, was calculated at each inhibitor concentration by fitting the progress curve to the equation P = vi/kobs(1 – exp(−kobst)) + d where P is the product formation, t is the reaction time, vi is the initial velocity, and d is the offset. […] The second-order rate constant, k2nd, (and SE value) was determined by fitting the linear equation kobs = (k2nd[I])/(1 + [S]/Km), where [S] is the substrate concentration, [I] is the inhibitor concentration, and KM is the Michaelis–Menten constant. The KM value determined for SmCB1 was 25 μM. […] To determine IC50 values, SmCB1 (40 pM) was preincubated with the inhibitor (0–100 μM) for 30 min under assay conditions as described above, followed by the addition of the fluorogenic substrate Cbz–Phe–Arg–AMC (20 μM). Substrate hydrolysis was monitored for 30 min in a microplate reader as described above. The IC50 values were determined by nonlinear regression using GraFit software (Erithacus Software).

[2] = tested on: S. mansoni newly transformed schistosomula (NTS); test: Phenotypic screen with newly transformed schistosomula (NTS); assay type: cell-based
Description: The same 19 gallinamides were screened for bioactivity against S. mansoni newly transformed schistosomula (NTS), the postinvasive parasite stage that feeds on host blood.[40] In this primary assay, the NTS were exposed to 1 and 10 μM compounds for 3 days, and the resulting phenotypic responses were graded from 0 through 4, i.e., the least to the most severe (Table 2 and Table S1). […] The effects were more pronounced after 72 h, and when the higher, 10 μM, compound concentration was used (Table S1). […] Also, compared to gallinamide A and its analogs, 3 has an additional N-terminal N-acetamide modification that further reduces bioactivity (Table 2).
Phenotypic screens employed S. mansoni newly transformed schistosomula (NTS) and adults and were carried out as described previously.[18]−[20],[42] NTS were prepared by mechanically transforming infective larvae (cercariae).[40],[42] NTS (200–300 parasites) were incubated in flat-bottomed 96-well plates in 200 μL of Basch Medium 169 containing 5% (v/v) FBS, 100 U mL^–1 penicillin and 100 μg mL^–1 streptomycin (complete Basch medium)[75] at 5% CO2 and 37 °C.[76],[77] Inhibitors were added at final concentrations of 1 and 10 μM, and changes in phenotypes were observed under an inverted microscope every 24 h for up to 72 h.
A constrained nomenclature of “descriptors”[39],[42] was used to record the multiple and dynamic changes in movement, shape, and translucence that the schistosome parasite is capable of (Table S1 for NTS and Table S3 for adults). These descriptors were then converted into an ordinal “severity score” system ranging from 0 (no effect) to 4 (maximum effect), which allows for the relative comparison of compound effects.

`CCC(C)C(C(=O)OC(CC(C)C)C(=O)NC(CC(C)C)C(=O)NC(C=CC(=O)N1C(=O)C=C(OC)C1Cc1ccccc1)Cc1ccccc1)N(C)C` (centres unmarked) [compound 18] was tested, and the “decrease in inhibition vs 14” value ([1]; Phe in R1 changed from S to R configuration) was 3.4 fold, the “SmCB1 inhibition k2nd” value ([1]; second-order rate constant (kinact/Ki), substrate Cbz–Phe–Arg–AMC, pH 5.5, 37 °C, mean ± SE) was 16.0 ± 0.2 M^–1·s^–1 and the schistosomula severity score ([2]; 1 μM compound, 24 h, scale 0 (no effect) to 4 (most severe)) was 0. It also gave a schistosomula severity score ([2]; 1 μM compound, 48 h, scale 0 to 4) of 0, a schistosomula severity score ([2]; 1 μM compound, 72 h, scale 0 to 4) of 0 and a schistosomula severity score ([2]; 10 µM compound, 24 h, scale 0 to 4) of 1. The schistosomula severity score ([2]; 10 µM compound, 48 h, scale 0 to 4) was 4 and the schistosomula severity score ([2]; 10 µM compound, 72 h, scale 0 to 4) was 4.
